Series [1] in a line: Two-week repeated dosing safety test. It is filed as in vivo. Particulars: SD rats, 400 mg/kg oral gavage once a day, 14 days. The protocol:
Samples for testing: compound 3-29; compound 3-16M; and compound 3-32.
Animal species and number: SD rats; 6 rats per group (half male and half female).
(§1) Mode of administration: oral gavage.
Animal grouping and administration dose: solvent blank group and compound 3-29 group (400 mg/kg); compound 3-16M group (400 mg/kg); and compound 3-32 group (400 mg/kg).
Administration frequency: once a day, and administration for 14 days.
After administration, a toxic reaction was observed by cages for 4 hours, and detailed clinical observation was made on animals with obvious abnormal performances. General clinical observation included twice a day during the duration of test (once in the morning and once in the afternoon). Death, morbidity, respiration, secretion, faeces, diet, drinking water, and other conditions were observed and weight changes of the rats during administration were recorded. Detailed clinical observations included but were not limited to behavioral activity, skin, coat, eyes, ears, nose, abdomen, external genitals, anus, extremities, feet, and respiration. After the administration, the animals in each group were euthanized, and all the animals were dissected and observed grossly.

The subject of series [2] is NCI-H358 cells. The experiment in a line: Cell proliferation inhibitory activity, NCI-H358 (CellTiter-Glo). Particulars: for pIC50: Homo sapiens. It is filed as cell-based. The method, then: (§2) NCI-H358 cells in an exponential growth phase were digested with trypsin-EDTA and plated in a 96-well plate at 2000-3000 cells per well and incubated overnight at 37° C. with 5% CO2. A test compound was prepared as a mother liquor with DMSO, diluted with a RPMI 1640 growth medium in a concentration gradient and added to the 96-well plate and incubated for 72 hours at 37° C. in a 5% CO2 incubator. After incubation, an equal volume of CellTiter-Glo detection reagent was added to each well and incubated after shaking, and a chemiluminescence value was measured by a microplate reader, and the IC50 value for the inhibition of NCI-H358 cell proliferation was fitted and calculated by GraphPad Prism software.
The inhibitory effect of the compounds on the proliferation activity of H358 cells was tested with reference to the method of the biological test 2, and the results were as follows:
The inhibitory effect of the compounds on the proliferation activity of NCI-H358 cells was tested with reference to the method of the biological test 2, and the results were as follows.
In general terms: In ATP-based viability assays light output follows the ATP content of the culture.

Series [3] deals with NCI-H358. The experiment in a line: Cell proliferation inhibitory activity of NCI-H358, 3D model test (agarose colony formation). In kind it is cell-based. As to conditions: for pIC50: Homo sapiens, NCI-H358, agarose gel, colony formation, NBT staining. The method, then:
100 μl of high concentration agarose gel was spread in a 96-well plate as a bottom agarose gel layer; low concentration agarose and growth medium containing cells were mixed and spread on the bottom agarose gel layer, cooled and solidified and incubated overnight at 37° C.; a test compound was prepared into a mother liquor with DMSO, diluted with a RPMI 1640 growth medium in a concentration gradient, and the gradient diluted solution of the compound to be tested with different concentrations was added into 96 wells containing upper agarose gel cells, and solvent control wells were set and placed in a carbon dioxide incubator for culture. During the period, the drug-containing medium was changed to observe the cell growth. After the culture, the cells were stained with NBT, the number of colony formation was counted, and the IC50 value of the compound inhibiting cell proliferation was obtained.

The target in series [4] is T1, hERG potassium channel (Homo sapiens, UniProt Q12809).
T1 construct: expressed in transfected cells; host or cells: HEK-293
The experiment in a line: hERG potassium channels, electrophysiological manual patch clamp. It is filed as cell-based. The protocol: Preparation of test solution: the solution of test compound 3-16M was subjected to conventional ultrasound and oscillation to ensure complete dissolution of the compound.
Cell culture: the cell lines were derived from HEK-293 cells which overexpressed hERG potassium channel. The cells were cultured in a 5% CO2 incubator at 37°. When a cell density reached 80% of a culture dish, the cells were pre-washed with a phosphate buffer solution (PBS), and then digested with trypsin/EDTA, and a cell culture medium was added to stop digestion. The cells were gently blown with a pipette and transferred to a centrifuge tube, centrifuged at 1000 rpm, the supernatant was poured out, and then the cell culture medium was added. The cells were gently blown and mixed evenly, then transferred to a culture dish for subculture, or the cells were dripped on a round slide and placed in a culture dish for the cells to adhere to the wall for test.
The hERG IC50 value of the compound calculated by electrophysiology manual patch clamp system test was as follows: […]

Series [5] deals with NCI-H358 tumor cells xenograft. The series can be described thus: Pharmacodynamics test of xenograft tumor model of NCI-H358 in nude mice. It is filed as in vivo, Balb/c Nude mice. As to conditions: 100 mg/kg; for Tumor suppression ratio (%): NCI-H358 xenograft, QD×15 days, oral gavage. The protocol: Animal species and number: Balb/c Nude; 6 animals per group.
Samples for testing: compound 3-2M, compound 3-16M, TM-1, TM-3, and AMG510 (obtained by purchasing).
Test groups: blank solvent control group; compound 3-2M (100 mg/kg, QD×15 days), compound 3-16M (100 mg/kg, QD×15 days), TM-1 (100 mg/kg, QD×15 days), TM-3 (100 mg/kg, QD×15 days); and AMG510 (100 mg/kg, QD×15 days).
Animal model establishment: NCI-H358 tumor cells at logarithmic phase were cultured and collected in vitro, and inoculated subcutaneously on the right side of the back of nude mice at a quantity of 5×10^6 cells/each, and the tumor-bearing nude mice were randomly grouped when the tumor volume grew to 150-300 mm^3. Subsequently, each group of animals was administered and the day of the first administration was defined as day 1 of the test.
(§3) Administration route and frequency: oral gavage; and once a day.
General state observation: observation time and frequency: once a day; observation index or content: including, but is not limited to local administration, appearance and signs, general behavioral activities, mental status, death and other abnormal manifestations of the animals. The animals were euthanized at the end of the test.
Tumor volume calculation: V=½×long diameter× short diameter^2 (mm^3). Tumor growth inhibition ratio TGI (%) was used to evaluate the tumor suppressive efficacy of the compounds. TGI (%)=[1-(mean tumor volume at the end of administration of the treatment group−mean tumor volume at the beginning of administration of the treatment group)/(mean tumor volume at the end of administration of the control group−mean tumor volume at the beginning of administration of the control group)]×100%.

Series [6] has as its system MIA PaCa-2 cells. The series can be described thus: Cell proliferation inhibitory activity, MIA PaCa-2 (CellTiter-Glo). It is filed as cell-based. The protocol:
as §2, with “MIA PaCa-2” for “NCI-H358”, “DMEM” for “RPMI 1640”

Series [7] is described as follows: Preliminary safety test of compounds, 3-day oral gavage. Particulars: mouse, in vivo, Balb/c, tentatively suggested, read-out: maximum tolerated dose. The protocol: Samples for testing: compound 3-2M and compound 3-6M.
Animal species and number: Balb/c; 3 animals per group.
as §1
Animal grouping and administration dose: solvent blank group and compound 3-2M group (400 mg/kg, 800 mg/kg); compound 3-6M group (400 mg/kg, 800 mg/kg).
Administration frequency: once a day, and administration for 3 days.

Series [8] is described as follows: Analysis of therapeutic safety window. As to conditions: in vivo, oral, 3 days.
The subject of series [9] is MIA-paca-2 cells subcutaneous transplanted tumor. The series can be described thus: Pharmacodynamic test of CDX model in nude mice. In kind it is in vivo. Particulars: 10 mg/kg, QD×15 days. The protocol:
Animal species and number: Balb/c Nude.
Test groups: blank solvent control group; compound 3-2M (10 mg/kg, QD×15 days), and compound 3-6M (10 mg/kg, QD×15 days).
Animal model establishment: MIA-paca-2 cells were cultured in vitro and inoculated subcutaneously on the right side of the back of nude mice, and the tumor-bearing nude mice were randomly grouped. Subsequently, each group of animals was administered and the day of the first administration was defined as day 1 of the test.
as §3
General state observation: observation time and frequency: once a day; observation index or content: including, but not limited to local administration, appearance and signs, general behavioral activities, mental status, death and other abnormal manifestations of the animals. The animals were euthanized at the end of the test.
Tumor volume calculation: V=½×long diameter×short diameter^2 (mm^3). Tumor growth inhibition ratio TGI (%) was used to evaluate the tumor suppressive efficacy of the compounds. TGI (%)=[1-(mean tumor volume at the end of administration of the treatment group−mean tumor volume at the beginning of administration of the treatment group)/(mean tumor volume at the end of administration of the control group−mean tumor volume at the beginning of administration of the control group)]×100%.

The subject of series [10] is Langendorff isolated perfused heart. The series can be described thus: In vitro isolated heart perfusion test (Langendorff). As to conditions: 3.3 μM. Also noted: species or system Guinea pig. The text has this:
Test method: influences of Langendorff isolated perfused heart test compounds on electrocardiogram, wherein the test method used in this test was as follows: [table] Test compounds: compound 3-2M and the compound in Example 41 of patent WO2018217651A1 (i.e., AMG510).

Setting [11] is: NCI-H358, 72 h, biological test 2, NCI-H358 cells, 72 hours, read-out: Cell proliferation inhibitory activity IC50 value of H358.

Each structure is given as a SMILES string. pIC50: −log10 of the molar value. Where two headings read alike, the source gives them in different places.

T1 sequence (Q12809 whole entry): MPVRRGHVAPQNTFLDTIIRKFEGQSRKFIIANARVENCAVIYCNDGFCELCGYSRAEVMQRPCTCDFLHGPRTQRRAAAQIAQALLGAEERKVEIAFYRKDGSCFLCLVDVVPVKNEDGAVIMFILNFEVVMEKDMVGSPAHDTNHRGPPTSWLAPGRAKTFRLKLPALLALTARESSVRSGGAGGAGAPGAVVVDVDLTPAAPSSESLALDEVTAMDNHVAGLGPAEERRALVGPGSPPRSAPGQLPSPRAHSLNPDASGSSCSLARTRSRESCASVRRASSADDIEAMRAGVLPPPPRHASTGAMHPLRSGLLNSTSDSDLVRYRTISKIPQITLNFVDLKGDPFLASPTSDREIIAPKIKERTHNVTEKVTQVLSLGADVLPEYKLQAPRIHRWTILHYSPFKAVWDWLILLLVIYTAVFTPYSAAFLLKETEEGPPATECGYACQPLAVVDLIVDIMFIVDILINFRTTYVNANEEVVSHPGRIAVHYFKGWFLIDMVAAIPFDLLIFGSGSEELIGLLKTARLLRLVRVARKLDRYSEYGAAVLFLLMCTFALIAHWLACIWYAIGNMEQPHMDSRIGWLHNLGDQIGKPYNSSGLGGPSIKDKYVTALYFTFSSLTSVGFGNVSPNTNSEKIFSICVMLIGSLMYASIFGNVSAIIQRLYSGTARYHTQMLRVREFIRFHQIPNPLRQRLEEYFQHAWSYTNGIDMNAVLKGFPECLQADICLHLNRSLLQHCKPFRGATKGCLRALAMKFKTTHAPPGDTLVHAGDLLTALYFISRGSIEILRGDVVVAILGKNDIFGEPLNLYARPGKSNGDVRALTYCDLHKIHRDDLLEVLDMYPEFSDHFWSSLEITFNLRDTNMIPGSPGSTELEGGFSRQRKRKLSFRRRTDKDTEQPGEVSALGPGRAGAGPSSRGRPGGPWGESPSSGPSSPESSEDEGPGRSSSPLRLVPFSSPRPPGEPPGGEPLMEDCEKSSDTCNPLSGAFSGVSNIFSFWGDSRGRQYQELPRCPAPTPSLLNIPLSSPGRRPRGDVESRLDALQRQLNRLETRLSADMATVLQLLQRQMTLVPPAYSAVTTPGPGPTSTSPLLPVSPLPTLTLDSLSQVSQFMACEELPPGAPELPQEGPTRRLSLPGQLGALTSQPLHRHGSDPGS

As to `[2H]C(=O)c1ccccc1-c1nc2c(cc1Cl)c(N1CCN(C(=O)C=C)C[C@@H]1C)nc(=O)n2-c1c(C)ccnc1C(C)C` (atropisomer, axis not shown) [Compound 3-16M], the “general observation: water intake, feeding, activity, body weight” value (shortened to “general observation: water intake”) in [1] is listed as “no obvious abnormal performance”. In addition, the “cell proliferation inhibitory activity against KRAS G12C mutant cells NCI-H358 (in words)” value in [2] was “significant cell proliferation inhibitory activities”. The pIC50 in series [2] (setting [11]) is at least 7.30; in series [3] it was 8.96; in [4] (HEK-293 cells overexpressing hERG), under 4.00; in [4] (human, HEK-293 cells overexpressing hERG potassium channel, test concentration range), under 4.00. For the same compound, in [3], the “cell proliferation inhibitory activity against NCI-H358, 3D model (in words)” value is “significant cell proliferation inhibitory activities”. Besides, in [5], the “inhibition of subcutaneous transplanted tumor growth of lung cancer NCI-H358 cells in nude mice (in words)” value was “significant inhibitory effects”. In series [5], the “Tumor suppression ratio (%)” value is listed as “++++ (“++++” represents that the tumor suppression ratio is greater than 140%)”.
Consider `C=CC(=O)N1CCN(c2nc(=O)n(-c3c(C)ccnc3C(C)C)c3nc(-c4c(F)cccc4C=O)c(Cl)cc23)[C@@H](C)C1` (single isomer, unassigned) [Compound 3-6M], for which the “cell proliferation inhibitory activity against KRAS G12C mutant cells MIA PaCa-2 (in words)” value in series [6] is “significant cell proliferation inhibitory activities”. Further, the pIC50 in series [6] (Homo sapiens, MIA PaCa-2 cells, 72 hours) is over 7.30. Besides, the MTD at 3 days in series [7] is over 800 mg/kg. In addition, in series [8], the “therapeutic safety window: ratio of toxic dose to onset dose” value is on record as “greater than 80 times”. For the same compound, the “cell proliferation inhibitory activity against KRAS G12C mutant cells NCI-H358 (in words)” value in [2] is “significant cell proliferation inhibitory activities”. Besides, in [2] (H358), the “cell proliferation inhibitory activity, R-configuration compared with corresponding S-configuration compound (in words)” value was “significantly better than that of the corresponding compound 3-6P”. Moreover, in series [2] (setting [11]), the pIC50 was at least 7.30. In series [9], the “inhibition of subcutaneous transplanted tumor growth of pancreatic cancer MIA-paca-2 cells in nude mice (in words)” value is reported as “significant inhibition of subcutaneous transplanted tumor growth”; the “toxicity during administration in CDX test (food and water intake, activities, weight)” value is “showed no toxicity”.
For `C=CC(=O)N1CCN(c2nc(=O)n(-c3c(C)ccnc3C(C)C)c3nc(-c4c(O)cccc4F)c(F)cc23)[C@@H](C)C1` [AMG510, reference compound], in series [10], the “effect on the heart rate of the isolated heart (in words)” value was “significant effect on reducing the heart rate”. Further, the “HR (heart rate) change %” value in series [10] (Guinea pig isolated heart) is given as “C (“C” represents that the heart rate decreases by greater than or equal to 15%)”. This compound gave a pIC50 in series [3] of 8.03. For the same compound, the “Tumor suppression ratio (%)” value in [5] is “+++ (“+++” represents that the tumor suppression ratio is between 101% and 140%)”.
Consider `C=CC(=O)N1CCN(c2nc(=O)n(-c3c(CF)ccnc3C(C)C)c3nc(-c4ccccc4C=O)c(Cl)cc23)[C@@H](C)C1` [Compound 3-29], for which the “general observation: water intake” value in series [1] is given as “no obvious abnormal performance”. Besides, the “cell proliferation inhibitory activity against KRAS G12C mutant cells NCI-H358 (in words)” value in [2] was “significant cell proliferation inhibitory activities”. For the same compound, the pIC50 in [2] (biological test 7, NCI-H358 cells, read-out: Cell proliferation inhibitory activity IC50 value of NCI-H358) is over 7.30.
On to `C=CC(=O)N1CCN(c2nc(=O)n(-c3c(CN(C)C)ccnc3C(C)C)c3nc(-c4ccccc4C=O)c(Cl)cc23)[C@@H](C)C1` [Compound 3-32], for which the “general observation: water intake” value in series [1] is reported as “no obvious abnormal performance”. In series [2], the “cell proliferation inhibitory activity against KRAS G12C mutant cells NCI-H358 (in words)” value is reported as “significant cell proliferation inhibitory activities”. Further, the pIC50 in series [2] (NCI-H358, biological test 7, NCI-H358 cells, read-out: Cell proliferation inhibitory activity IC50 value of NCI-H358) is over 7.30.

The values above are taken from patent publication US12679838B2, “Aromatic compound and application thereof in antitumor drug” (Shanghai Zheye Biotechnology Co., Ltd., priority 2020, dated 2026).
